These are literature values, as cited in US20240100064A1, “METHODS OF TREATING NEURODEVELOPMENTAL DISORDERS” (Woolsey Pharmaceuticals, Inc., priority 2020, published 2024).

Counter-ions that a name gives are not always drawn.

Data set [1] has as its system oligophrenin-1-deficient mice.
The conditions of data set [2]: in vivo, 1-hydroxy metabolite (Shibuya 2001).
The mark [3] stands for this setting: oligophrenin-1-deficient mice (Allegra et al. 2017).
Setting [4] is: oligophrenin-1 deficient mice (Meziane et al. 2016).

Consider `O=S(=O)(c1cccc2cnccc12)N1CCCNCC1` [Fasudil, Hexahydro-1-(5-isoquinolinesulfonyl)-1H-1,4-diazepine monohydrochloride hemihydrate], for which, in data set [1] (setting [3]), the rescuing axon formation result is recorded as “not effective” and the spine density result is “restored”. Further, the hippocampal hyperexcitability result in data set [1] (oligophrenin-1 deficient mice (Busti 2020)) was “rescue”. Moreover, in data set [1] (setting [4]), the behavioral changes result was “reverse” and the brain ventricular enlargement result is recorded as “reverse”.
Consider `O=S(=O)(c1cccc2c(O)nccc12)N1CCCNCC1` [M3], for which the half-life result in data set [2] is recorded as “about 8 hours”.
